Experimental findings from patent publication US9079866B2, “Flap modulators” (JANSSEN PHARMACEUTICA NV, priority 2013, dated 2015) are described below.

The structures appear in SMILES notation. Where a name gives a salt, the structure may show the parent alone.

human FLAP, sequence (P20292 whole entry): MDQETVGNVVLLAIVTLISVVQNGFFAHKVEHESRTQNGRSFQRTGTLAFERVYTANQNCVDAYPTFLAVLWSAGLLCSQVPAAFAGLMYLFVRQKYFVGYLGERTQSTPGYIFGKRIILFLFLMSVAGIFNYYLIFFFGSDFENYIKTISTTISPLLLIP

One experiment has as its target human FLAP (Homo sapiens (Human), UniProt P20292). The experiment in a line: FLAP binding assay (HTRF format). The note with it: read-out: FLAP Binding wild type HTRF Ki. A digest of the protocol: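 Binding of compounds to FLAP read out as HTRF ratio. Values are the mean of two assay plates, each sample run in duplicate per plate.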
As for `Nc1ncc(-c2ccc(-c3cccnc3S(=O)(=O)C3CCNC3)cc2F)cn1` (centres unmarked) [Example 804, 5-(2-Fluoro-4-(2-(pyrrolidin-3-ylsulfonyl)pyridin-3-yl)phenyl)pyrimidin-2-amine formic acid salt], the inhibition constant Ki (usually the equilibrium dissociation constant of an inhibitor or competing ligand from its target) was 0.636 µM.

In the case of `Nc1ncc(-c2ccc(-c3cccnc3S(=O)(=O)C3CCNCC3)cc2F)cn1` [Example 827, 5-{2-Fluoro-4-[2-(piperidin-4-ylsulfonyl)pyridin-3-yl]phenyl}pyrimidin-2-amine formic acid salt], the inhibition constant Ki is greater than 10 µM.

Staying with this experiment, now noted: wild type FLAP, HTRF format.
The compound `Nc1ccnc(S(=O)(=O)c2ccccc2-c2ccc(-c3cnc(N)nc3)c(F)c2)n1` [Example 722, 5-{2′-[(4-Aminopyrimidin-2-yl)sulfonyl]-3-fluorobiphenyl-4-yl}pyrimidin-2-amine] yielded a Ki greater than 10 µM.

As to `Nc1cnc(S(=O)(=O)c2ccccc2-c2ccc(-c3cnc(N)nc3)c(F)c2)cn1` [Example 723, 5-{2′-[(5-Aminopyrazin-2-yl)sulfonyl]-3-fluorobiphenyl-4-yl}pyrimidin-2-amine], the Ki was greater than 10 µM.

`Nc1ncc(-c2ccc(-c3ccccc3S(=O)(=O)c3ccnc(N)n3)cc2F)cn1` [Example 724, 4-{[4′-(2-Aminopyrimidin-5-yl)-3′-fluorobiphenyl-2-yl]sulfonyl}pyrimidin-2-amine] yielded an inhibitory constant (Ki) greater than 10 µM.

`Nc1cncc(S(=O)(=O)c2ccccc2-c2ccc(-c3cnc(N)nc3)c(F)c2)n1` [Example 725, 5-{2′-[(6-Aminopyrazin-2-yl)sulfonyl]-3-fluorobiphenyl-4-yl}pyrimidin-2-amine] showed a Ki of 1.3 µM.

For `Nc1cnc(-c2ccc(-c3ccccc3S(=O)(=O)c3cc(N)ncn3)cc2F)cn1` [Example 726, 6-{[4′-(5-Aminopyrazin-2-yl)-3′-fluorobiphenyl-2-yl]sulfonyl}pyrimidin-4-amine], the inhibition constant (Ki) was found to be 0.904 µM.

In the case of `Nc1ncc(-c2ccc(-c3ccccc3S(=O)(=O)CC3CC3)cc2F)cn1` [Example 728, 5-{2′-[(Cyclopropylmethyl)sulfonyl]-3-fluorobiphenyl-4-yl}pyrimidin-2-amine], affinity was put at a Ki of 0.781 µM.

`CC(C)(C#N)S(=O)(=O)c1ccccc1-c1ccc(-c2cnc(N)nc2)c(F)c1` [Example 732, 2-{[4′-(2-Aminopyrimidin-5-yl)-3′-fluorobiphenyl-2-yl]sulfonyl}-2-methylpropanenitrile] displayed a Ki of 0.557 µM.

On to `CC(C)(C(N)=O)S(=O)(=O)c1ccccc1-c1ccc(-c2cnc(N)nc2)c(F)c1` [Example 733, 2-{[4′-(2-Aminopyrimidin-5-yl)-3′-fluorobiphenyl-2-yl]sulfonyl}-2-methylpropanamide], for which the inhibition constant (Ki) was greater than 10 µM.

In turn, `CC(C)(CN)S(=O)(=O)c1ccccc1-c1ccc(-c2cnc(N)nc2)c(F)c1` [Example 734, 5-{2′-[(2-Amino-1,1-dimethylethyl)sulfonyl]-3-fluorobiphenyl-4-yl}pyrimidin-2-amine] registered a Ki greater than 10 µM.

Compound `CC(C)(CN)S(=O)(=O)c1ccccc1-c1ccc(-c2cnc(N)cn2)c(F)c1` [Example 737, 5-{2′-[(2-Amino-1,1-dimethylethyl)sulfonyl]-3-fluorobiphenyl-4-yl}pyrazin-2-amine] registered a Ki of 0.984 µM.

The compound `NCC1(S(=O)(=O)c2ccccc2-c2ccc(-c3cnc(N)nc3)c(F)c2)CCCC1` [Example 740, 5-(2′-{[1-(Aminomethyl)cyclopentyl]sulfonyl}-3-fluorobiphenyl-4-yl)pyrimidin-2-amine] gave an inhibition constant (Ki) greater than 10 µM.

As to `CC(C)(C)NS(=O)(=O)c1ccccc1-c1ccc(-c2cnc(NS(C)(=O)=O)cn2)c(F)c1` [Example 748, N-(tert-Butyl)-3′-fluoro-4′-(5-(methylsulfonamido)pyrazin-2-yl)-[1,1′-biphenyl]-2-sulfonamide], the inhibitory constant (Ki) was greater than 10 µM.

Compound `CS(=O)(=O)Cc1ccccc1-c1ccc(-c2cnc(N)cn2)c(F)c1` [Example 750, 5-{3-Fluoro-2′-[(methylsulfonyl)methyl]biphenyl-4-yl}pyrazin-2-amine] showed a Ki of 1.16 µM.

For the compound `Nc1cnc(-c2ccc(-c3ccccc3C(=O)N3CC(O)C3)cc2F)cn1` [Example 755, 1-{[4′-(5-Aminopyrazin-2-yl)-3′-fluorobiphenyl-2-yl]carbonyl}azetidin-3-ol], the affinity, expressed as Ki, was 0.94 µM.

The compound `Nc1cnc(-c2ccc(-c3ccccc3C(=O)NC3CCOCC3)cc2F)cn1` [Example 756, 4′-(5-Aminopyrazin-2-yl)-3′-fluoro-N-(tetrahydro-2H-pyran-4-yl)biphenyl-2-carboxamide] displayed an inhibition constant Ki greater than 10 µM.

`Nc1ncc(-c2ccc(-c3ccccc3C(=O)NCCO)cc2F)cn1` [Example 761, 4′-(2-Aminopyrimidin-5-yl)-3′-fluoro-N-(2-hydroxyethyl)biphenyl-2-carboxamide] yielded an inhibitory constant (Ki) greater than 10 µM.

Regarding `Nc1ncc(-c2ccc(-c3ccccc3C(=O)N3CCC[C@@H](O)C3)cc2F)cn1` [Example 764, (3R)-1-{[4′-(2-Aminopyrimidin-5-yl)-3′-fluorobiphenyl-2-yl]carbonyl}piperidin-3-ol], the Ki was greater than 10 µM.

Compound `Nc1ncc(-c2ccc(-c3ccccc3C(=O)N3CCC[C@H](O)C3)cc2F)cn1` [Example 767, (3S)-1-{[4′-(2-Aminopyrimidin-5-yl)-3′-fluorobiphenyl-2-yl]carbonyl}piperidin-3-ol] yielded an inhibitory constant (Ki) greater than 10 µM.

Compound `Nc1cnc(-c2ccc(-c3ccccc3C(=O)N3CCC[C@H](O)C3)cc2F)cn1` [Example 768, (3S)-1-{[4′-(5-Aminopyrazin-2-yl)-3′-fluorobiphenyl-2-yl]carbonyl}piperidin-3-ol] returned an inhibitory constant (Ki) of 0.573 µM.

In turn, `Nc1cnc(-c2ccc(-c3ccccc3C(=O)N3CC[C@@H](O)C3)cc2F)cn1` [Example 769, (3R)-1-{[4′-(5-Aminopyrazin-2-yl)-3′-fluorobiphenyl-2-yl]carbonyl}pyrrolidin-3-ol] had a Ki of 1.54 µM.

In the case of `Nc1ncc(-c2ccc(-c3ccccc3C(=O)N3CC[C@@H](O)C3)cc2F)cn1` [Example 770, (3R)-1-{[4′-(2-Aminopyrimidin-5-yl)-3′-fluorobiphenyl-2-yl]carbonyl}pyrrolidin-3-ol], the Ki is greater than 10 µM.

The compound `Nc1cnc(-c2ccc(-c3ccccc3C(=O)N3CC[C@H](O)C3)cc2F)cn1` [Example 771, (3S)-1-{[4′-(5-Aminopyrazin-2-yl)-3′-fluorobiphenyl-2-yl]carbonyl}pyrrolidin-3-ol] came in with a Ki greater than 10 µM.

Turning to `Nc1ncc(-c2ccc(-c3ccccc3C(=O)N3CC[C@H](O)C3)cc2F)cn1` [Example 772, (3S)-1-{[4′-(2-Aminopyrimidin-5-yl)-3′-fluorobiphenyl-2-yl]carbonyl}pyrrolidin-3-ol], the inhibition constant Ki is greater than 10 µM.

`C[C@H]1COCCN1C(=O)c1ccccc1-c1ccc(-c2cnc(N)nc2)c(F)c1` [Example 778, 5-(3-Fluoro-2′-{[(3S)-3-methylmorpholin-4-yl]carbonyl}biphenyl-4-yl)pyrimidin-2-amine] showed a Ki greater than 10 µM.

In turn, `C[C@@H]1COCCN1C(=O)c1ccccc1-c1ccc(-c2cnc(N)nc2)c(F)c1` [Example 779, 5-(3-Fluoro-2′-{[(3R)-3-methylmorpholin-4-yl]carbonyl}biphenyl-4-yl)pyrimidin-2-amine] displayed an inhibition constant (Ki) of roughly 2.49 µM.

For `O=C(c1ncccc1-c1ccc(-c2cnc3[nH]ccc3c2)c(F)c1)N1CCOCC1` [Example 781, 5-{2-Fluoro-4-[2-(morpholin-4-ylcarbonyl)pyridin-3-yl]phenyl}-1H-pyrrolo[2,3-b]pyridine], the affinity, expressed as Ki, was 0.73 µM.

The compound `Nc1ncc(-c2ccc(-c3cccnc3C(=O)N3CCOCC3)cc2F)cn1` [Example 782, 5-{2-Fluoro-4-[2-(morpholin-4-ylcarbonyl)pyridin-3-yl]phenyl}pyrimidin-2-amine] yielded a Ki greater than 10 µM.

`Nc1cnc(-c2ccc(-c3cccnc3C(=O)N3CCOCC3)cc2F)cn1` [Example 783, 5-{2-Fluoro-4-[2-(morpholin-4-ylcarbonyl)pyridin-3-yl]phenyl}pyrazin-2-amine] returned a Ki greater than 10 µM.

Take `Nc1ncc(-c2ccc(-c3ccccc3C(=O)N3CC(O)C3)cc2F)cn1` [Example 791, [2-[4-(2-Aminopyrimidin-5-yl)-3-fluoro-phenyl]phenyl]-(3-hydroxyazetidin-1-yl)methanone]: the Ki is greater than 10 µM.

As for `CNC1CCN(C(=O)c2ccccc2-c2ccc(-c3cnc(N)nc3)c(F)c2)CC1` [Example 792, [2-[4-(2-Aminopyrimidin-5-yl)-3-fluoro-phenyl]phenyl]-[4-(methylamino)-1-piperidyl]methanone], the Ki is greater than 10 µM.

For the compound `Nc1ncc(-c2ccc(-c3ccc(C(F)(F)F)cc3C(=O)N3CCC(O)CC3)cc2F)cn1` [Example 796, [2-[4-(2-Aminopyrimidin-5-yl)-3-fluoro-phenyl]-5-(trifluoromethyl)phenyl]-(4-hydroxy-1-piperidyl)methanone], the Ki stood at 0.391 µM.

`Nc1ncc(-c2ccc(-c3ccccc3C(=O)NC3CCOCC3)cc2F)cn1` [Example 797, 2-[4-(2-Aminopyrimidin-5-yl)-3-fluoro-phenyl]-N-tetrahydropyran-4-yl-benzamide] came in with a Ki greater than 10 µM.

`CC(C)(C)C(=O)Nc1ncccc1-c1ccc(-c2cnc(N)nc2)c(F)c1` [Example 800, N-{3-[4-(2-Aminopyrimidin-5-yl)-3-fluorophenyl]pyridin-2-yl}-2,2-dimethylpropanamide] had an inhibitory constant (Ki) greater than 10 µM.

In the case of `CC(C)(C)C(=O)Nc1ncccc1-c1ccc(-c2cnc(N)cn2)c(F)c1` [Example 801, N-{3-[4-(5-Aminopyrazin-2-yl)-3-fluorophenyl]pyridin-2-yl}-2,2-dimethylpropanamide], the inhibitory constant (Ki) is greater than 10 µM.

`COCCCS(=O)(=O)c1ncccc1-c1ccc(-c2cnc(N)nc2)c(F)c1` [Example 817, 5-(2-Fluoro-4-(2-((3-methoxypropyl)sulfonyl)pyridine-3-yl)phenyl)pyrimidin-2-amine hydrogen chloride salt] registered a Ki of 0.463 µM.

Compound `Nc1ncc(-c2ccc(-c3cccnc3S(=O)(=O)CCN3CCOCC3)cc2F)cn1` [Example 821, 5-(2-Fluoro-4-(2-((2-morpholinoethyl)sulfonyl)pyridine-3-yl)phenyl)pyrimidin-2-amine formic acid salt] showed an inhibitory constant (Ki) greater than 10 µM.
